The values below come from patent US12319672B2, “Alpha-D-galactopyranoside derivatives” (Idorsia Pharmaceuticals Ltd, priority 2019, dated 2025).

Experiment [1] has as its target human Gal-3 (hGal-3) (Homo sapiens (Human), UniProt P17931). The experiment in a line: Competitive binding assay: binding of biotinylated hGal-3 to microplate-adsorbed asialofetuin (ASF). Conditions: Activity on hGal-3; mean values of several measurements. The method in brief:
(§1)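 For hGal-1, a variant with all six cysteines replaced by serines is preferred. Either galectin, biotinylated at 300-1000 ng/mL, competes with compound for microplate-bound ASF over 3 h at 4° C; peroxidase/ABTS detection gives IC50, averaged.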

Experiment [2] concerns the target human Gal-1 (hGal-1). The experiment in a line: Competitive binding assay: binding of biotinylated hGal-1 to microplate-adsorbed asialofetuin (ASF). As to conditions: Activities on hGal-1; mean values of several measurements. The method in brief:
as §1

Sequence of human Gal-1 (hGal-1) (P09382 2-135 limits assumed): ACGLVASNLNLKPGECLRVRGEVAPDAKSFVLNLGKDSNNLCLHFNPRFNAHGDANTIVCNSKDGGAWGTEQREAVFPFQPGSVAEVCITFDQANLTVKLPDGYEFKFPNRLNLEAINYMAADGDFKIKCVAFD
Sequence of human Gal-3 (hGal-3) (P17931 whole entry): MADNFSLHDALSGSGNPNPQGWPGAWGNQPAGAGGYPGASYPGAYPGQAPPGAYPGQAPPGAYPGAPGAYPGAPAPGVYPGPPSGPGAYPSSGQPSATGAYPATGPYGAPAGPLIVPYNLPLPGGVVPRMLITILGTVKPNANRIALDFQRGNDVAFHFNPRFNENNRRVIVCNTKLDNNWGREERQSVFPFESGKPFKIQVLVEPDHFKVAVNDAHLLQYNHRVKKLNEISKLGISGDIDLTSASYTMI

For `CO[C@@H]1[C@@H](n2cc(-c3cc(F)c(F)c(F)c3)nn2)[C@@H](O)[C@@H](CO)O[C@@H]1Cc1cc(C2CCN(C(=O)OC(C)(C)C)CC2)no1` [Ex 1.62], the figures for the IC50 in experiment [1] and in experiment [2] were 0.076 µM and 0.45 µM, respectively.
`CO[C@@H]1[C@@H](n2cc(-c3cc(F)c(F)c(F)c3)nn2)[C@@H](O)[C@@H](CO)O[C@@H]1Cc1cc(C(C)(C)C)on1` [Ex 1.63]: the IC50 (as a rule, the point on the concentration scale where inhibition reaches its midpoint) was determined as 0.34 µM in experiment [1] and 2.54 µM in experiment [2].
The like results for `CO[C@@H]1[C@@H](n2cc(-c3cc(F)c(F)c(F)c3)nn2)[C@@H](O)[C@@H](CO)O[C@@H]1Cc1cc(C2CCOCC2)on1` [Ex 1.64] were, in that order, 0.27 µM and 8.51 µM.
On to `CO[C@@H]1[C@@H](n2cc(-c3cc(F)c(F)c(F)c3)nn2)[C@@H](O)[C@@H](CO)O[C@@H]1Cc1cc(C2CCCCC2)on1` [Ex 1.65], for which the figures for the half-inhibitory concentration (IC50) in experiment [1] and in experiment [2] were 0.56 µM and 14.1 µM, respectively.
The like results for `CO[C@@H]1[C@@H](n2cc(-c3cc(F)c(F)c(F)c3)nn2)[C@@H](O)[C@@H](CO)O[C@@H]1CC1=NOC(C(C)(C)C)C1` (stereo partly shown) [Ex 1.66] were, in that order, 1.08 µM and 3.76 µM.
For `CO[C@@H]1[C@@H](n2cc(-c3cc(F)c(F)c(F)c3)nn2)[C@@H](O)[C@@H](CO)O[C@@H]1CC1=NOC(C2CCN(C(=O)OC(C)(C)C)CC2)C1` (stereo partly shown) [Ex 1.67], in that order: 0.43 µM and 3.08 µM.
The like results for `CO[C@@H]1[C@@H](n2cc(-c3cc(F)c(F)c(F)c3)nn2)[C@@H](O)[C@@H](CO)O[C@@H]1Cc1cc(C2(O)COC2)on1` [Ex 1.69] were, in that order, 0.45 µM and 6.73 µM.
On to `CO[C@@H]1[C@@H](n2cc(-c3cc(F)c(F)c(F)c3)nn2)[C@@H](O)[C@@H](CO)O[C@@H]1Cc1cc(C2CCN(C(=O)OC(C)(C)C)C2)on1` (stereo partly shown) [Ex 1.70], for which the IC50 amounted to 1.98 µM in experiment [1] and 12.6 µM in experiment [2].
Take `CO[C@@H]1[C@@H](n2cc(-c3cc(F)c(F)c(F)c3)nn2)[C@@H](O)[C@@H](CO)O[C@@H]1Cc1cc(C2CCCC2)on1` [Ex 1.71]: the figures for the IC50 in experiment [1] and in experiment [2] were 0.23 µM and 5.26 µM, respectively.
For `CO[C@@H]1[C@@H](n2cc(-c3cc(F)c(F)c(F)c3)nn2)[C@@H](O)[C@@H](CO)O[C@@H]1Cc1cc(C2(O)CCCC2)on1` [Ex 1.72], in that order: 0.36 µM and 5.11 µM.
Regarding `CO[C@@H]1[C@@H](n2cc(-c3cc(F)c(F)c(F)c3)nn2)[C@@H](O)[C@@H](CO)O[C@@H]1Cc1cc(C2(O)CCCCC2)on1` [Ex 1.73], the 50% inhibitory concentration (IC50) in experiment [1] was 0.19 µM; in experiment [2], 3.12 µM.
The like results for `CO[C@@H]1[C@@H](n2cc(-c3cc(F)c(F)c(F)c3)nn2)[C@@H](O)[C@@H](CO)O[C@@H]1Cc1cc(C2CCC2)on1` [Ex 1.74] were, in that order, 0.18 µM and 3.16 µM.
For `CO[C@@H]1[C@@H](n2cc(-c3cc(F)c(F)c(F)c3)nn2)[C@@H](O)[C@@H](CO)O[C@@H]1Cc1cc(C2(O)CCOCC2)on1` [Ex 1.75], in that order: 0.4 µM and 3.55 µM.
The like results for `CO[C@@H]1[C@@H](n2cc(-c3cc(F)c(F)c(F)c3)nn2)[C@@H](O)[C@@H](CO)O[C@@H]1Cc1cc(C2(O)CCCN(C(=O)OC(C)(C)C)CC2)on1` (stereo partly shown) [Ex 1.76] were, in that order, 4.62 µM and 13.3 µM.
On to `OC[C@H]1O[C@H](Cc2cc(C3CCC4(CC3)OCCO4)on2)[C@H](O)[C@@H](n2cc(-c3cc(F)c(F)c(F)c3)nn2)[C@H]1O` [Ex 1.77], for which the half-inhibitory concentration (IC50) is 0.71 µM in experiment [1] and 6.82 µM in experiment [2].
The like results for `CCOC(=O)C1CCC(O)(c2cc(C[C@H]3O[C@H](CO)[C@H](O)[C@H](n4cc(-c5cc(F)c(F)c(F)c5)nn4)[C@H]3O)no2)CC1` (stereo partly shown) [Ex 1.78] were, in that order, 1 µM and 9.64 µM.
For `CO[C@@H]1[C@@H](n2cc(-c3cc(F)c(F)c(F)c3)nn2)[C@@H](O)[C@@H](CO)O[C@@H]1Cc1cc(C2CCC(F)(F)CC2)on1` [Ex 1.79], the 50% inhibitory concentration (IC50) was determined as 0.27 µM in experiment [1] and 4.24 µM in experiment [2].
Regarding `CC(C)(C)OC(=O)NC1CCC(c2cc(C[C@H]3O[C@H](CO)[C@H](O)[C@H](n4cc(-c5cc(F)c(F)c(F)c5)nn4)[C@H]3O)no2)CC1` (stereo partly shown) [Ex 1.80], the IC50 in experiment [1] is 0.11 µM; in experiment [2], 43.8 µM.
For the molecule `CC(C)(C)OC(=O)NC1CCC(c2cc(C[C@H]3O[C@H](CO)[C@H](O)[C@H](n4cc(-c5cc(F)c(F)c(F)c5)nn4)[C@H]3O)no2)CC1` (stereo partly shown) [Ex 1.81], the half-maximal inhibitory concentration (IC50) in experiment [1] stood at 0.2 µM; in experiment [2] it was 14.5 µM.
For `CO[C@@H]1[C@@H](n2cc(-c3cc(F)c(F)c(F)c3)nn2)[C@@H](O)[C@@H](CO)O[C@@H]1Cc1cc(C2(O)CCC(C)(C)CC2)on1` [Ex 1.82], the IC50 in experiment [1] was 1.35 µM; in experiment [2], 28.4 µM.
The like results for `CO[C@@H]1[C@@H](n2cc(-c3cc(F)c(F)c(F)c3)nn2)[C@@H](O)[C@@H](CO)O[C@@H]1Cc1cc(C2(O)CCC(F)(F)CC2)on1` [Ex 1.83] were, in that order, 0.4 µM and 8.21 µM.
For the molecule `CO[C@@H]1[C@@H](n2cc(-c3cc(F)c(F)c(F)c3)nn2)[C@@H](O)[C@@H](CO)O[C@@H]1Cc1cc(C2COC2)on1` [Ex 1.84], the values for the IC50 in experiment [1] and in experiment [2] were 0.35 µM and 3.01 µM, respectively.
The like results for `OC[C@H]1O[C@H](Cc2cc(C3CCN(c4ncco4)CC3)on2)[C@H](O)[C@@H](n2cc(-c3cc(F)c(F)c(F)c3)nn2)[C@H]1O` [Ex 1.85] were, in that order, 0.047 µM and 1.14 µM.
With `OC[C@H]1O[C@H](Cc2cc(C3CCN(c4nc5ccccc5s4)CC3)on2)[C@H](O)[C@@H](n2cc(-c3cc(F)c(F)c(F)c3)nn2)[C@H]1O` [Ex 1.86], the IC50 was 0.089 µM in experiment [1] and greater than 100 µM in experiment [2].
`OC[C@H]1O[C@H](Cc2cc(C3CCN(c4nccs4)CC3)on2)[C@H](O)[C@@H](n2cc(-c3cc(F)c(F)c(F)c3)nn2)[C@H]1O` [Ex 1.87]: the IC50 in experiment [1] was found to be 0.08 µM; in experiment [2], 1.97 µM.
Turning to `COc1ccc(C2=NOC(C[C@@H]3O[C@H](CO)[C@H](O)[C@H](n4cc(-c5cc(F)c(F)c(F)c5)nn4)[C@H]3O)C2)cc1` (stereo partly shown) [Ex 1.88], the 50% inhibitory concentration (IC50) turned out to be 6.23 µM in experiment [1] and 22.2 µM in experiment [2].
Consider `CO[C@@H]1[C@@H](n2cc(-c3cc(F)c(F)c(F)c3)nn2)[C@@H](O)[C@@H](CO)O[C@@H]1C[C@H]1CC([C@@H]2CCN(C)C(=O)C2)=NO1` [Ex 1.89], for which the half-inhibitory concentration (IC50) in experiment [1] worked out at 0.99 µM; in experiment [2] it was 4.11 µM.
For `CO[C@@H]1[C@@H](n2cc(-c3cc(F)c(F)c(F)c3)nn2)[C@@H](O)[C@@H](CO)O[C@@H]1Cc1cc(C2CCN(C)C(=O)C2)no1` (stereo partly shown) [Ex 1.90], in that order: 0.26 µM and 1.78 µM.
For `CO[C@@H]1[C@@H](n2cc(-c3cc(F)c(F)c(F)c3)nn2)[C@@H](O)[C@@H](CO)O[C@@H]1C[C@H]1CC([C@@H]2CCNC(=O)C2)=NO1` [Ex 1.91], in that order: 0.48 µM and 11.8 µM.
For `CO[C@@H]1[C@@H](n2cc(-c3cc(F)c(F)c(F)c3)nn2)[C@@H](O)[C@@H](CO)O[C@@H]1Cc1cc(C2CCNC(=O)C2)no1` (stereo partly shown) [Ex 1.92], in that order: 0.26 µM and 4.91 µM.
With `CO[C@@H]1[C@@H](n2cc(-c3cc(F)c(F)c(F)c3)nn2)[C@@H](O)[C@@H](CO)O[C@@H]1C[C@H]1CC([C@H]2CNC(=O)C2)=NO1` [Ex 1.93], the IC50 turned out to be 0.55 µM in experiment [1] and 16 µM in experiment [2].
Consider `CO[C@@H]1[C@@H](n2cc(-c3cc(F)c(F)c(F)c3)nn2)[C@@H](O)[C@@H](CO)O[C@@H]1Cc1cc(C2CNC(=O)C2)no1` (stereo partly shown) [Ex 1.94], for which the IC50 in experiment [1] worked out at 0.14 µM; in experiment [2] it was 4.76 µM.
For `CC(C)(C)OC(=O)N1CCC(C2=NOC(C[C@H]3O[C@H](CO)[C@H](O)[C@H](n4cc(-c5cc(F)c(Cl)cc5F)nn4)[C@H]3O)C2)CC1` (stereo partly shown) [Ex 1.95], in that order: 0.19 µM and 1.21 µM.
The like results for `COc1ccc(F)cc1-c1cn([C@H]2[C@@H](O)[C@@H](CO)O[C@H](CC3CC(C4CCN(C(=O)OC(C)(C)C)CC4)=NO3)[C@@H]2O)nn1` (stereo partly shown) [Ex 1.96] were, in that order, 1.74 µM and 8.65 µM.
The like results for `Cc1ccc(-c2cn([C@H]3[C@@H](O)[C@@H](CO)O[C@H](CC4CC(C5CCN(C(=O)OC(C)(C)C)CC5)=NO4)[C@@H]3O)nn2)c(F)c1F` (stereo partly shown) [Ex 1.97] were, in that order, 0.031 µM and 3.25 µM.
As for `CC(C)(C)OC(=O)N1CCC(C2=NOC(C[C@H]3O[C@H](CO)[C@H](O)[C@H](n4cc(-c5ccc6ncsc6c5)nn4)[C@H]3O)C2)CC1` (stereo partly shown) [Ex 1.98], the concentration for half-maximal inhibition (IC50) worked out at 1.56 µM in experiment [1] and 1.84 µM in experiment [2].
As for `Cc1cc(-c2cn([C@H]3[C@@H](O)[C@@H](CO)O[C@H](CC4CC(C5CCN(C(=O)OC(C)(C)C)CC5)=NO4)[C@@H]3O)nn2)ccc1F` (stereo partly shown) [Ex 1.99], the 50% inhibitory concentration (IC50) in experiment [1] was found to be 0.4 µM; in experiment [2], 0.471 µM.
For `CC(C)(C)OC(=O)N1CCC(C2=NOC(C[C@H]3O[C@H](CO)[C@H](O)[C@H](n4cc(-c5ccc(C#N)c(F)c5)nn4)[C@H]3O)C2)CC1` (stereo partly shown) [Ex 1.100], the IC50 came out at 0.65 µM in experiment [1] and 4.9 µM in experiment [2].
For `CC(C)(C)OC(=O)N1CCC(C2=NOC(C[C@H]3O[C@H](CO)[C@H](O)[C@H](n4cc(-c5cc(F)c(Cl)c(F)c5)nn4)[C@H]3O)C2)CC1` (stereo partly shown) [Ex 1.101], in that order: 0.18 µM and 4.1 µM.
With `CC(C)(C)OC(=O)N1CCC(C2=NOC(C[C@H]3O[C@H](CO)[C@H](O)[C@H](n4cc(-c5ccc(Cl)c(F)c5F)nn4)[C@H]3O)C2)CC1` (stereo partly shown) [Ex 1.102], the half-maximal inhibitory concentration (IC50) in experiment [1] stood at 0.082 µM; in experiment [2], 2.37 µM.
For `CC(C)(C)OC(=O)N1CCC(C2=NOC(C[C@H]3O[C@H](CO)[C@H](O)[C@H](n4cc(-c5ccc(C(F)(F)F)c(F)c5)nn4)[C@H]3O)C2)CC1` (stereo partly shown) [Ex 1.103], in that order: 0.45 µM and 9.82 µM.
